Literature values, collected in PubChem BioAssay AID1259409 (Chemical Carcinogenesis Research Information System (CCRIS), 2018).

System: rodent chemically induced tumor inhibition, incidence and multiplicity
Experiment: CCRIS tumor inhibitor studies

Row | Structure (SMILES) | tumour outcome (control, treated, inhibition, significance) (Carcinogen: 2-AMINO-1-METHYL-6-PHENYL-1H-IMIDAZO[4,5-B]PYRID INE, 105650-23-5, Dose [Inhibitor]: 0, 0.02% IN THE DIET FOR 8 WK BEGINNING 3 D POST LAST CARCINOGEN DOSE (STUDY DURATION: 48 WK), Route [Inhibitor]: ORAL, Species: RAT, Strain/Sex: SPRAGUE-DAWLEY/FEMALE, Target Tissue: Type of Lesion: MAMMARY GLAND: ADENOCARCINOMA, Dose [Carcinogen]: 100 MG/KG BW 1/WK FOR 8 WK BEGINNING AT 6 WK OF AGE, Promoter: NONE USED) | tumour outcome (control, treated, inhibition, significance) (Carcinogen: 2-AMINO-1-METHYL-6-PHENYL-1H-IMIDAZO[4,5-B]PYRID INE, 105650-23-5, Dose [Inhibitor]: 0, 0.02% IN THE DIET FOR 8 WK BEGINNING 3 D POST LAST CARCINOGEN DOSE (STUDY DURATION: 48 WK), Route [Inhibitor]: ORAL, Species: RAT, Strain/Sex: SPRAGUE-DAWLEY/FEMALE, Target Tissue: Type of Lesion: MAMMARY GLAND: FIBROADENOMA, Dose [Carcinogen]: 100 MG/KG BW 1/WK FOR 8 WK BEGINNING AT 6 WK OF AGE, Promoter: NONE USED) | tumour outcome (control, treated, inhibition, significance) (Carcinogen: 2-AMINO-1-METHYL-6-PHENYL-1H-IMIDAZO[4,5-B]PYRID INE, 105650-23-5, Dose [Inhibitor]: 0, 0.02% IN THE DIET FOR 8 WK BEGINNING 3 D PRIOR TO FIRST CARCINOGEN DOSE (STUDY DURATION: 48 WK), Route [Inhibitor]: ORAL, Species: RAT, Strain/Sex: SPRAGUE-DAWLEY/FEMALE, Target Tissue: Type of Lesion: MAMMARY GLAND: ADENOCARCINOMA, Dose [Carcinogen]: 100 MG/KG BW 1/WK FOR 8 WK CONCURRENT WITH INHIBITOR, Promoter: NONE USED) | tumour outcome (control, treated, inhibition, significance) (Carcinogen: 2-AMINO-1-METHYL-6-PHENYL-1H-IMIDAZO[4,5-B]PYRID INE, 105650-23-5, Dose [Inhibitor]: 0, 0.02% IN THE DIET FOR 8 WK BEGINNING 3 D PRIOR TO FIRST CARCINOGEN DOSE (STUDY DURATION: 48 WK), Route [Inhibitor]: ORAL, Species: RAT, Strain/Sex: SPRAGUE-DAWLEY/FEMALE, Target Tissue: Type of Lesion: MAMMARY GLAND: FIBROADENOMA, Dose [Carcinogen]: 100 MG/KG BW 1/WK FOR 8 WK CONCURRENT WITH INHIBITOR, Promoter: NONE USED) | tumour outcome (control, treated, inhibition, significance) (Carcinogen: 2-AMINO-1-METHYL-6-PHENYL-1H-IMIDAZO[4,5-B]PYRID INE, 105650-23-5, Dose [Inhibitor]: 0, 0.2% IN THE DIET FOR 8 WK BEGINNING 3 D POST LAST CARCINOGEN DOSE (STUDY DURATION: 48 WK), Route [Inhibitor]: ORAL, Species: RAT, Strain/Sex: SPRAGUE-DAWLEY/FEMALE, Target Tissue: Type of Lesion: MAMMARY GLAND: ADENOCARCINOMA, Dose [Carcinogen]: 100 MG/KG BW 1/WK FOR 8 WK BEGINNING AT 6 WK OF AGE, Promoter: NONE USED) | tumour outcome (control, treated, inhibition, significance) (Carcinogen: 2-AMINO-1-METHYL-6-PHENYL-1H-IMIDAZO[4,5-B]PYRID INE, 105650-23-5, Dose [Inhibitor]: 0, 0.2% IN THE DIET FOR 8 WK BEGINNING 3 D POST LAST CARCINOGEN DOSE (STUDY DURATION: 48 WK), Route [Inhibitor]: ORAL, Species: RAT, Strain/Sex: SPRAGUE-DAWLEY/FEMALE, Target Tissue: Type of Lesion: MAMMARY GLAND: ADENOCARCINOMA, Dose [Carcinogen]: 100 MG/KG BW 1/WK FOR 8 WK CONCURRENT WITH INHIBITOR, Promoter: NONE USED) | tumour outcome (control, treated, inhibition, significance) (Carcinogen: 2-AMINO-1-METHYL-6-PHENYL-1H-IMIDAZO[4,5-B]PYRID INE, 105650-23-5, Dose [Inhibitor]: 0, 0.2% IN THE DIET FOR 8 WK BEGINNING 3 D PRIOR TO FIRST CARCINOGEN DOSE (STUDY DURATION: 48 WK), Route [Inhibitor]: ORAL, Species: RAT, Strain/Sex: SPRAGUE-DAWLEY/FEMALE, Target Tissue: Type of Lesion: MAMMARY GLAND: FIBROADENOMA, Dose [Carcinogen]: 100 MG/KG BW 1/WK FOR 8 WK CONCURRENT WITH INHIBITOR, Promoter: NONE USED) | tumour outcome (control, treated, inhibition, significance) (Carcinogen: 2-AMINO-1-METHYL-6-PHENYL-1H-IMIDAZO[4,5-B]PYRID INE, Dose [Inhibitor]: 0, 0.2% IN THE DIET FOR 8 WK BEGINNING 3 D POST LAST CARCINOGEN DOSE (STUDY DURATION: 48 WK), Route [Inhibitor]: ORAL, Species: RAT, Strain/Sex: SPRAGUE-DAWLEY/FEMALE, Target Tissue: Type of Lesion: MAMMARY GLAND: FIBROADENOMA, Dose [Carcinogen]: 100 MG/KG BW 1/WK FOR 8 WK BEGINNING AT 6 WK OF AGE, Promoter: NONE USED) | tumour outcome (control, treated, inhibition, significance) (Carcinogen: 2-AMINO-1-METHYL-6-PHENYLIMIDAZO[4,5-B]PYRIDINE [105650-23-5], Dose [Inhibitor]: 0.02% IN DIET FOR 8 WK BEGINNING 3 D PRIOR TO FIRST CARCINOGEN DOSE (STUDY DURATION: 48 WK), Route [Inhibitor]: ORAL, Species: RAT, Strain/Sex: SPRAGUE-DAWLEY/FEMALE, Target Tissue: Type of Lesion: MAMMARY GLAND: CARCINOMA, Dose [Carcinogen]: 100 MG/KG BW 1X/WK FOR 8 WK (STUDY DURATION: 48 WK), Promoter: NONE) | tumour outcome (control, treated, inhibition, significance) (Carcinogen: 2-AMINO-1-METHYL-6-PHENYLIMIDAZO[4,5-B]PYRIDINE [105650-23-5], Dose [Inhibitor]: 0.02% IN DIET FOR 8 WK BEGINNING 3 D PRIOR TO FIRST CARCINOGEN DOSE (STUDY DURATION: 48 WK), Route [Inhibitor]: ORAL, Species: RAT, Strain/Sex: SPRAGUE-DAWLEY/FEMALE, Target Tissue: Type of Lesion: MAMMARY GLAND: FIBROADENOMA, Dose [Carcinogen]: 100 MG/KG BW 1X/WK FOR 8 WK (STUDY DURATION: 48 WK), Promoter: NONE) | tumour outcome (control, treated, inhibition, significance) (Carcinogen: 2-AMINO-1-METHYL-6-PHENYLIMIDAZO[4,5-B]PYRIDINE [105650-23-5], Dose [Inhibitor]: 0.02% IN DIET FOR 40 WK BEGINNING 3 D POST LAST CARCINOGEN DOSE (STUDY DURATION: 48 WK), Route [Inhibitor]: ORAL, Species: RAT, Strain/Sex: SPRAGUE-DAWLEY/FEMALE, Target Tissue: Type of Lesion: MAMMARY GLAND: CARCINOMA, Dose [Carcinogen]: 100 MG/KG BW 1X/WK FOR 8 WK (STUDY DURATION: 48 WK), Promoter: NONE) | tumour outcome (control, treated, inhibition, significance) (Carcinogen: 2-AMINO-1-METHYL-6-PHENYLIMIDAZO[4,5-B]PYRIDINE [105650-23-5], Dose [Inhibitor]: 0.02% IN DIET FOR 40 WK BEGINNING 3 D POST LAST CARCINOGEN DOSE (STUDY DURATION: 48 WK), Route [Inhibitor]: ORAL, Species: RAT, Strain/Sex: SPRAGUE-DAWLEY/FEMALE, Target Tissue: Type of Lesion: MAMMARY GLAND: FIBROADENOMA, Dose [Carcinogen]: 100 MG/KG BW 1X FOR 8 WK (STUDY DURATION: 48 WK), Promoter: NONE) | tumour outcome (control, treated, inhibition, significance) (Carcinogen: 2-AMINO-1-METHYL-6-PHENYLIMIDAZO[4,5-B]PYRIDINE [105650-23-5], Dose [Inhibitor]: 0.2% IN DIET FOR 8 WK BEGINNING 3 D PRIOR TO FIRST CARCINOGEN DOSE (STUDY DURATION: 48 WK), Route [Inhibitor]: ORAL, Species: RAT, Strain/Sex: SPRAGUE-DAWLEY/FEMALE, Target Tissue: Type of Lesion: MAMMARY GLAND: CARCINOMA, Dose [Carcinogen]: 100 MG/KG BW 1X/WK FOR 8 WK (STUDY DURATION: 48 WK), Promoter: NONE) | tumour outcome (control, treated, inhibition, significance) (Carcinogen: 2-AMINO-1-METHYL-6-PHENYLIMIDAZO[4,5-B]PYRIDINE [105650-23-5], Dose [Inhibitor]: 0.2% IN DIET FOR 8 WK BEGINNING 3 D PRIOR TO FIRST CARCINOGEN DOSE (STUDY DURATION: 48 WK), Route [Inhibitor]: ORAL, Species: RAT, Strain/Sex: SPRAGUE-DAWLEY/FEMALE, Target Tissue: Type of Lesion: MAMMARY GLAND: FIBROADENOMA, Dose [Carcinogen]: 100 MG/KG BW 1X/WK FOR 8 WK (STUDY DURATION: 48 WK), Promoter: NONE) | tumour outcome (control, treated, inhibition, significance) (Carcinogen: 2-AMINO-1-METHYL-6-PHENYLIMIDAZO[4,5-B]PYRIDINE [105650-23-5], Dose [Inhibitor]: 0.2% IN DIET FOR 40 WK BEGINNING 3 D POST LAST CARCINOGEN DOSE (STUDY DURATION: 48 WK), Route [Inhibitor]: ORAL, Species: RAT, Strain/Sex: SPRAGUE-DAWLEY/FEMALE, Target Tissue: Type of Lesion: MAMMARY GLAND: CARCINOMA, Dose [Carcinogen]: 100 MG/KG BW 1X FOR 8 WK (STUDY DURATION: 48 WK), Promoter: NONE) | tumour outcome (control, treated, inhibition, significance) (Carcinogen: 2-AMINO-1-METHYL-6-PHENYLIMIDAZO[4,5-B]PYRIDINE [105650-23-5], Dose [Inhibitor]: 0.2% IN DIET FOR 40 WK BEGINNING 3 D POST LAST CARCINOGEN DOSE (STUDY DURATION: 48 WK), Route [Inhibitor]: ORAL, Species: RAT, Strain/Sex: SPRAGUE-DAWLEY/FEMALE, Target Tissue: Type of Lesion: MAMMARY GLAND: FIBROADENOMA, Dose [Carcinogen]: 100 MG/KG BW 1X FOR 8 WK (STUDY DURATION: 48 WK), Promoter: NONE) | tumour outcome (control, treated, inhibition, significance) (Carcinogen: 4-(METHYLNITROSAMINO)-1-(3-PYRIDYL)-1-BUTANONE, 64091-91-4, Dose [Inhibitor]: 0, 25 UMOL IN 0.1 ML CORN OIL ONCE 2 HR PRIOR TO CARCINOGEN DOSE (STUDY DURATION: 16 WK), Route [Inhibitor]: GAVAGE, Species: MOUSE, Strain/Sex: STRAIN-A/FEMALE, Target Tissue: Type of Lesion: LUNG: TUMOR, Dose [Carcinogen]: 10 UMOL IN 0.1 ML SALINE ONCE, Promoter: NONE USED)
1 | COc1ccc(C[C@H]2COC(=O)[C@@H]2Cc2ccc(O[C@@H]3O[C@H](CO)[C@@H](O)[C@H](O)[C@H]3O)c(OC)c2)cc1OC | 12/20 (60%), 10/19 (53%), 12%, not significant | 2/20 (10%), 2/19 (11%), -10%, not significant | 12/20 (60%), 11/20 (55%), 8%, not significant | 2/20 (10%), 3/20 (15%), -50%, not significant | 12/20 (60%), 11/20 (55%), 8%, not significant | 12/20 (60%), 13/20 (65%), -8%, not significant | 2/20 (10%), 4/20 (20%), -100%, not significant | 2/20 (10%), 2/20 (10%), 0%, not significant | 12/20 (60%), 11/20 (55%), 8%, not significant | 2/20 (10%), 3/20 (15%), -50%, not significant | 12/20 (60%), 10/19 (53%), 12%, not significant | 2/20 (10%), 2/19 (11%), -10%, not significant | 12/20 (60%), 13/20 (65%), -8%, not significant | 2/20 (10%), 4/20 (20%), -100%, not significant | 12/20 (60%), 11/20 (55%), 8%, not significant | 2/20 (10%), 2/20 (10%), 0%, not significant | 
2 | CCCCCc1ccccc1 |  |  |  |  |  |  |  |  |  |  |  |  |  |  |  |  | 100%, 95%, 5%, not significant
